Assays:
MOLM-13 parental cells = assay: Drug treatment IC50 / cell viability (CellTiter Glo) and synergy, MOLM-13 parental cells; format: cell-based; details: Homo sapiens
Experimental: (§1) Cell lines were plated in 96 well plates and exposed to the indicated compounds at various concentration ranges with a minimum of three technical replicates per concentration per cell line. Cell viability was measured with the CellTiter Glo reagent (Promega) as per manufacturer's instructions. Absolute viability values were converted to percentage viability versus DMSO control treatment, and then non-linear fit of log (inhibitor) versus response (three parameters) was performed in GraphPad Prism v7.0 to obtain an IC50 values. Two-dimensional heatmaps of Synergy Scores from Bliss synergy models were generated based on Demidenko et al., 2019^83.

[1] = tested on: venetoclax-resistant MOLM-13 cell lines; assay: Drug treatment IC50 / cell viability (CellTiter Glo) and synergy, venetoclax-resistant MOLM-13 cell lines; format: cell-based; details: Homo sapiens, cell lines developed by continuous exposure to venetoclax for 3 weeks
Experimental: as §1
The efficacy of SM09419 across a spectrum of human AML cell lines was tested. […] Three independent venetoclax-resistant MOLM-13 cell lines following continuous exposure to venetoclax for 3 weeks were developed. […] These findings were further extended to patient-derived xenograft (PDX) models of AML from patients with de novo resistance to venetoclax combination regimens (5-azacytidine or low-dose cytarabine) (FIGS. 6C-6D). Following xenotransplantation from two individual venetoclax-resistant patients into NSGS mice, disease engraftment with >10% human hCD45^+ hCD34^+ hCD38^+ cells was detected and mice were exposed to SM09419 (25 mg/kg) or vehicle administered orally and daily for 3 weeks.

Compound CC1(C)CCC(CN2CCN(c3ccc(C(=O)NS(=O)(=O)c4ccc(NCC5CCOCC5)c([N+](=O)[O-])c4)c(Oc4cnc5[nH]ccc5c4)c3)CC2)=C(c2ccc(Cl)cc2)C1 [venetoclax] has an IC50 (MOLM-13 parental cells) of about 15 nM and an IC50 [1] of over 99 nM.

Reference: patent US12661352B2, “Combination therapy with CLK/DYRK inhibitors and BCL2 inhibitors to treat leukemia” (Memorial Sloan-Kettering Cancer Center, priority 2023, dated 2026)
